Read-outs that look alike come from different tables or passages of the source.
Legend:
[1] = tested on: ribonuclear foci in MyoD transformed fibroblasts derived from DM1 patients (>300 CTG repeats); assay: FISH detection of aberrant ribonuclear foci in human DM1 fibroblasts; format: cell-based; settings: 24 h treatment, vs no treatment
Description: FIG. 1. Quantification of aberrant ribonuclear foci (DM1 disease hallmark) in human DM1 fibroblasts. Treatments with the compounds of Formula I were performed (VLT002, VLT015, VLT025, VLT024, VLT042, VLT040, VLT023, VLT026, VLT048, VLT045, VLT043, VLT049, VLT051 VLT053 and VLT056). (A) Number (medium) of foci/nuclei (No treatment vs. compound treatment). (B) Number of cells without foci (No treatment vs. compound treatment). n=100 minimum number of cells counted. T-Student test: * indicates p-value <0.05 ** p-value p<0.005 *** p-value p<0.0005.
After screening identification of the compounds of the invention (see FIG. 10), main validation was done using Fluorescence In Situ Hybridization (FISH) detection of aberrant aggregation of ribonuclear foci in cell lines from DM1 patients (see FIG. 1) and in DM1 Drosophila model (see FIG. 2) (Garcia-Lopez et al., Proc. Natl. Acad. Sci. USA. 108(29):11866-71 (2011)). Briefly, regarding human cells, it was used MyoD transformed fibroblasts derived from clinically diagnosed DM1 patients (>300 CTG repeats) routinely growing in DMEM supplemented with 10% heat-inactivated fetal bovine serum and maintained at 37° C. in a humidified incubator containing 5% CO2. To detect ribonuclear foci, cells were cultured over cover-slides in flat bottomed 24-well plates, after 24 h compounds of the invention were added to the cells at desiderate concentration, 24 h later in situ hybridization was done by fixing with 4% paraformaldehyde (PFA) 15 min at room temperature, and washed and stored in 70% ethanol. Cells were rehydrated with PBS and pre-hybridized 10 min at room temperature with a pre-hybridization buffer (formamide 30%, 2× saline-sodium citrate buffer (SSC)). Hybridization was performed in a light-proof wet chamber using the same pre-hybridization buffer supplemented with 0.02% bovine serum albumin (BSA), 1 mg/ml yeast tRNA (Sigma), 2 mM sodium (meta)vanadate, 1 mg/ml sperm DNA, 10% dextran sulfate and 1 ng/μl RNase free HPCL-purified Cy3-labeled (CAG)10 RNA. After hybridization cells were washed 2×15 minutes at 45° C. with the pre-hybridization buffer and washed with 1×PBS at room temperature. Slides were mounted with Vectashield solution with DAPI and number of foci by cell and number of cells with/without foci (see FIG. 1) were counted in a minimum of 100 cells for each treatment and concentration tested with a 63× objective in a Leica microscope. Same FISH approach was performed in Drosophila DM1 flies, where thoraces were embedded in OCT and transversal sections were taken with a Leica CM 15105 cryomicrotome. Sections were processed for in situ hybridization and counting for number of foci by cell with the same Cy3-labeled (CAG)10 probe (see FIG. 2).

(CUG)23 RNA hairpin = assay: 2-Aminopurine fluorescence assay of hairpin RNA unfolding; format: biochemical; settings: (CUG)23 RNA, dose-range
Description: FIG. 7. […] Measurements of the fluorescence emitted (Y-axis), measured as relative fluorescence units (RFU), by 2-aminopurine in a (CUG)23 RNA (1 μM) in the presence of different compounds (dose-range approach), relative to the fluorescence emitted by the free RNA. […] These effects were not observed when incubating the RNA with DMSO (not shown), or with the small molecule pentamidine, published as a compound able to disrupt MBNL1 binding to CUG hairpins (Warf M B et al. Proc. Natl. Acad. Sci. USA 106:18551-56 (2009)). * indicates p-value <0.05 ** p-value <0.005 *** p-value p<0.0005.
Aminopurine Fluorescence assay to detect hairpin double strand RNA unfolding. An aliquot of 2-aminopurine (2AP)-CUG23 RNA (1 μM in binding buffer) was heated at 90° C. for 3 min, placed on ice, and further diluted to 30 nM in a final volume of 1 mL in binding buffer.

[2] = tested on: indirect flight muscles of MHC-Gal4/+; UAS-i480CTGs/+ flies; assay: Drosophila muscle histology (IFM muscle area); format: in vivo; settings: 100 μM, adult IFM
Description: FIG. 3. Representative bright field microscopy images of transversal sections of resin-embedded adult IFM (indirect flight muscles) of MHC-Gal4/+; UAS-i480CTGs/+ flies that had been treated with DMSO (left) or with VLT024 (100 μM) (right).
Additional assays involved: • Reverse Transcription-PCR (RT-PCR) to detect levels of normal/aberrant splicing events in specific genes. This approach was performed in human cells from patients (see FIG. 5) or from DM1 mouse (see FIG. 8 up) (HSA^LR, Mankodi A et al., Science, 289:1769-1773 (2000)) tissues (skeletal muscle), from which total RNA was extracted from ˜0.5-1.5×10^5 cells using the Zygem Tissue Plus kit. Serca 1, Cypher or cTNNT genes reverse transcription were performed and quantification of normal/aberrant spliced band forms was obtained (ImageJ software) after running PCR products in 2% agarose gels. As shown in FIGS. 5 and 8 compounds of the invention are able to recover disease phenotypes. • Drosophila Muscle Histology, where five-day old Drosophila thoraces were embedded in Epon for transversal, semi-thin sectioning. Muscle area was quantified (see FIG. 3) by binarizing images (equal dimensions) and quantifying pixels (%) within muscle tissue with ImageJ software. […] A minimum of 8 flies were analyzed in each case.

FAM-(CUG)10 RNA = assay: Gel retardation assay (fluorescence EMSA) with FAM-(CUG)10; format: binding
Description: FIG. 6. Study of the binding of some compounds of Formula I (VLT002, VLT025 and VLT026) to FAM-(CUG)10 (repeat tract present in DM1, HDL2, SCA8 diseases) by means of gel retardation assays.
Fluorescence Electrophoretic Mobility Shift Assay to test RNA-compound binding. Briefly, an aliquot of carboxyfluorescein (FAM)-CUG10 RNA (DM1, HDL2, SCA8; see FIG. 6) was heated at 70° C. for 5 min and diluted to 300 nM. The binding reaction with compounds was then carried out as described in (Garcia-Lopez A et al. Proc. Natl. Acad. Sci. USA. 108(29):11866-71 (2011)). The reaction mix was loaded onto 8% polyacrylamide nondenaturing gels, and electrophoresis was conducted at 4° C. in TB 1× for approximately 30 min at 240V, followed by fluorescence visualization. Quantification of the free RNA band intensity was carried out using the ImageJ software. A non-linear regression analysis was used to calculate EC50, based on a total of three experimental replicates. Same approach was developed with (FAM)-CCUG8 (DM2), CAG10 (SCA3), CGG10 (FXTAS), GGGGCC5 (ALS/FSD), UGGAA6 (SCA31) probes (see FIG. 9).

MBNL1 = assay: Visualization and quantification of MBNL1 release in DM1 fibroblasts; format: cell-based, human; settings: 100 μM
Description: FIG. 4. Visualization and quantification of MBNL1 release (A). Visualization of MBNL1 release for VLT002: Upper row: Untreated DM1 fibroblasts with MBNL1 localizing as ribonuclear foci (see dots in middle and right pictures) to the nucleus (DAPI, detected as gray spherical shadow in left and right pictures). […] (B) Quantification of the area (into the nucleus), where MBNL1 present (Photoshop software), reflects the MBNL1 release after VLT002, VLT025, VLT045, VLT049 and VLT040 treatment (100 μM).
At the same time human cells were recollected for foci counting. Some (150,000-300,000) were prepared for Muscleblind (MBNL1) detection (see FIG. 4). After PBS washes, cells were probed overnight, at 4° C. with anti-MBNL1 antibody (1:5000 dilutions, A2764 antibody) in 1×PBS. After washing cells with 1×PBS, cells were incubated with goat anti-rabbit Alexa 488 (1:500 dilution) for 2 h at RT. Cells were washed 2 times, for 10 min at room temperature with 1×PBS and then mounted onto glass slides using a hard-set mounting media that contains DAPI (Vectashield). Cells were imaged on a Leica microscope.

[3] = cited from earlier work
[4] = dose range of 5-40 mg/kg, compared to mexiletine

| Compound | aberrant ribonuclear foci: number of foci/nuclei (A) and/or number of cells without foci (B) [1] | other results |
| --- | --- | --- |
| COc1cc2c(cc1O)CC1c3c(cc(O)c(OC)c3-2)CCN1C (stereo not drawn) [VLT015] | significant reduction |  |
| COc1cc(CCN(C)C)c2ccc3c(c2c1OC)=CC(OC)C(OC)C=3 (stereo not drawn) [VLT023] | significant reduction | modification of the hairpin loops formed by the CUG repeats (2-AP fluorescence) ((CUG)23 RNA hairpin): modify the hairpin loops |
| COc1cc2ccc3c(CC[N+](C)(C)C)cc(OC)c(OC)c3c2cc1OC [VLT024] | significant reduction | muscle area relative to DMSO-treated flies [2]: significant increase |
| COc1cc2c(ccc3c(CCN(C)Cc4ccccc4)cc(OCc4ccccc4)c(OC)c32)cc1OCc1ccccc1 [VLT026] | significant reduction | binding to FAM-CUG10 (FAM-(CUG)10 RNA): bind to FAM-CUG10 |
| C[N+]1(C)CCc2cc3c(c4c2c1cc1ccccc14)OCO3 [VLT042] | significant reduction |  |
| CC(=O)N1CCc2cc3c(c4c2C1Cc1ccccc1-4)OCO3 (stereo not drawn) [VLT043] | significant reduction |  |
| O=C1c2ccccc2-c2c3c(cc4ccnc1c24)OCO3 [VLT045] | significant reduction | MBNL1 sequestration / MBNL1 release (nuclear area where MBNL1 present) (MBNL1): relieve MBNL1 sequestration; formation of foci (MBNL1 ribonuclear foci) (MBNL1): effectively reduce the formation of foci |
| CCNC(=O)Oc1cc2c(cc1OC)-c1c(OC)c(OC(=O)NCC)cc3c1C(C2)N(C)CC3 (stereo not drawn) [VLT048] | significant reduction |  |
| COc1cc2c3c(c1OC)-c1ccccc1CC3N(C)CC2 (stereo not drawn) [VLT049] | significant reduction | MBNL1 sequestration / MBNL1 release (nuclear area where MBNL1 present) (MBNL1): relieve MBNL1 sequestration; formation of foci (MBNL1 ribonuclear foci) (MBNL1): effectively reduce the formation of foci |
| COc1cc(CC[N+](C)(C)C)c2ccc3ccccc3c2c1OC [VLT051] | significant reduction |  |
| C[N+](C)(C)CCc1cc(O)c(O)c2c1ccc1ccccc12 [VLT053] | significant reduction |  |
| CC(=O)Oc1cc2ccc3c(CCN(C)C)cc(OC(C)=O)c(OC(C)=O)c3c2cc1OC(C)=O [VLT056] | significant reduction |  |
| CC(C)(C)NCC(O)c1cc(Cl)c(N)c(Cl)c1 (stereo not drawn) [clenbuterol] |  | antimyotonic effect [3, 4]: time-dependent antimyotonic effect |
| CC(C)(C)NCC(O)COc1cccc2c1CC(O)C(O)C2 (stereo not drawn) [nadolol] |  | antimyotonic effect ([3]; in vivo): did not show any significant antimyotonic effect |
| N=C(N)c1ccc(OCCCCCOc2ccc(C(=N)N)cc2)cc1 [pentamidine, reference compound] |  | modification of the hairpin loops formed by the CUG repeats (2-AP fluorescence) ((CUG)23 RNA hairpin): not observed |
| CC(C)NCC(O)COc1cccc2ccccc12 (stereo not drawn) [propranolol] |  | antimyotonic effect [3, 4]: time-dependent antimyotonic effect |
| CC(C)(C)NCC(O)c1ccc(O)c(CO)c1 (stereo not drawn) [salbutamol] |  | antimyotonic effect ([3]; in vivo): did not show any significant antimyotonic effect |

— US20160194274A1, “PHENANTHRENE DERIVATIVES FOR USE AS MEDICAMENTS” (VALENTIA BIOPHARMA, priority 2012, published 2016)
